Test results published in the supplement of paper PMC8253809.

Tests used:
DIPGX29 [1] = H3.3 K27M diffuse intrinsic pontine glioma line; assay: EC50 (inflection of fitted growth-inhibition curve) (log10 M)
How it was run: (§1)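 A pin tool was used to add a 10-point threefold dilution series (mean top concentration 35 μM), in triplicate, to patient-derived pHGG/DIPG cell lines and astrocyte controls seeded on 384-well plates coated with 1% Geltrex. After 7 days at 37 °C and 5% CO2 (3 days for iAstro), CellTiter-Glo luminescence was log2-transformed, normalised on each plate to % activity relative to negative (solvent) and positive control wells, and pooled. EC50 and maximal response (yFin) were read from the three- or four-parameter log-logistic fit with the lowest AICc.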

DIPGX9 [2] = diffuse intrinsic pontine glioma line; assay: as above
How it was run: as §1

HABS [3] = astrocyte control; assay: as above
How it was run: as §1

HGGX2 [4] = paediatric high-grade glioma line; assay: as above
How it was run: as §1

HGGX39 [5] = paediatric high-grade glioma line; assay: as above
How it was run: as §1

HGGX42 [6] = H3.3 G34R paediatric high-grade glioma line; assay: as above
How it was run: as §1

HGGX6 [7] = H3.3 G34R paediatric high-grade glioma line; assay: as above
How it was run: as §1

SUDIPGXIX [8] = diffuse intrinsic pontine glioma line; assay: as above
How it was run: as §1

SUDIPGXVII [9] = diffuse intrinsic pontine glioma line; assay: as above
How it was run: as §1

SUDIPGXXI [10] = diffuse intrinsic pontine glioma line; assay: as above
How it was run: as §1

iAstro [11] = astrocyte control; assay: as above
How it was run: as §1

DIPGX29 [12] = assay: maximal growth inhibition (yFin) relative to DMSO / staurosporine; higher = more efficacious
How it was run: as §1

DIPGX9 [13] = assay: as above
How it was run: as §1

HABS [14] = assay: as above
How it was run: as §1

HGGX2 [15] = assay: as above
How it was run: as §1

HGGX39 [16] = assay: as above
How it was run: as §1

HGGX42 [17] = assay: as above
How it was run: as §1

HGGX6 [18] = assay: as above
How it was run: as §1

SUDIPGXIX [19] = assay: as above
How it was run: as §1

SUDIPGXVII [20] = assay: as above
How it was run: as §1

SUDIPGXXI [21] = assay: as above
How it was run: as §1

iAstro [22] = assay: as above
How it was run: as §1

DIPGX29 [23] = assay: area under dose-response curve of % growth inhibition (log2 RLU vs DMSO / staurosporine), 1e-11 to 1e-4 M (% x log10 M); higher = more growth inhibition
How it was run: (§2)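 A 10-point threefold dilution series, mean top concentration 35 μM, was applied in triplicate to patient-derived pHGG/DIPG lines and astrocytes on 1% Geltrex-coated 384-well plates for 7 days (3 days for iAstro) at 37 °C, 5% CO2. Per-plate % activity between solvent and positive controls was calculated from log2-transformed CellTiter-Glo luminescence. Area under the curve followed from the trapezoid rule on a log-logistic fit, or on a smoothing spline when the sigmoid fit failed.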

DIPGX37 [24] = H3.3 K27M diffuse intrinsic pontine glioma line; assay: as above
How it was run: as §2

DIPGX7 [25] = H3.3 K27M diffuse intrinsic pontine glioma line; assay: as above
How it was run: as §2

DIPGX9 [26] = assay: as above
How it was run: as §2

HABS [27] = assay: as above
How it was run: as §2

HGGX2 [28] = assay: as above
How it was run: as §2

HGGX39 [29] = assay: as above
How it was run: as §2

HGGX42 [30] = assay: as above
How it was run: as §2

HGGX6 [31] = assay: as above
How it was run: as §2

SUDIPGIV [32] = diffuse intrinsic pontine glioma line; assay: as above
How it was run: as §2

SUDIPGVI = diffuse intrinsic pontine glioma line; assay: as above
How it was run: as §2

SUDIPGXIII [33] = diffuse intrinsic pontine glioma line; assay: as above
How it was run: as §2

SUDIPGXIX [34] = assay: as above
How it was run: as §2

SUDIPGXVII [35] = assay: as above
How it was run: as §2

SUDIPGXXI [36] = assay: as above
How it was run: as §2

iAstro [37] = assay: as above
How it was run: as §2

DIPGX37 [38] = assay: EC50 (inflection of fitted growth-inhibition curve) (log10 M)
How it was run: as §1

SUDIPGIV [39] = assay: as above
How it was run: as §1

DIPGX37 [40] = assay: maximal growth inhibition (yFin) relative to DMSO / staurosporine; higher = more efficacious
How it was run: as §1

SUDIPGIV [41] = assay: as above
How it was run: as §1

DIPGX7 [42] = assay: EC50 (inflection of fitted growth-inhibition curve) (log10 M)
How it was run: as §1

SUDIPGXIII [43] = assay: as above
How it was run: as §1

DIPGX7 [44] = assay: maximal growth inhibition (yFin) relative to DMSO / staurosporine; higher = more efficacious
How it was run: as §1

SUDIPGXIII [45] = assay: as above
How it was run: as §1

## C#Cc1cccc(Nc2ncnc3cc(OCCOC)c(OCCOC)cc23)c1 [ERLOTINIB]
DIPGX29 [1]
  EC50 (log10 M): -4.82
DIPGX9 [2]
  EC50 (log10 M): -5.14
HABS [3]
  EC50 (log10 M): -4.84
HGGX2 [4]
  EC50 (log10 M): -5.13
HGGX39 [5]
  EC50 (log10 M): -4.77
HGGX42 [6]
  EC50 (log10 M): -5.09
HGGX6 [7]
  EC50 (log10 M): -4.65
SUDIPGXIX [8]
  EC50 (log10 M): -5.24
SUDIPGXVII [9]
  EC50 (log10 M): -5.32
SUDIPGXXI [10]
  EC50 (log10 M): -5.65
iAstro [11]
  EC50 (log10 M): -5.17
DIPGX29 [12]
  maximal growth inhibition: 25.7%
DIPGX9 [13]
  maximal growth inhibition: 53.6%
HABS [14]
  maximal growth inhibition: 80.2%
HGGX2 [15]
  maximal growth inhibition: 32.7%
HGGX39 [16]
  maximal growth inhibition: 40.4%
HGGX42 [17]
  maximal growth inhibition: 31.5%
HGGX6 [18]
  maximal growth inhibition: 30.5%
SUDIPGXIX [19]
  maximal growth inhibition: 62.6%
SUDIPGXVII [20]
  maximal growth inhibition: 25.8%
SUDIPGXXI [21]
  maximal growth inhibition: 103%
iAstro [22]
  maximal growth inhibition: 27.5%
DIPGX29 [23]
  area under dose-response curve: 28.1
DIPGX37 [24]
  area under dose-response curve: 51.3
DIPGX7 [25]
  area under dose-response curve: 44.7
DIPGX9 [26]
  area under dose-response curve: 68.4
HABS [27]
  area under dose-response curve: 86.4
HGGX2 [28]
  area under dose-response curve: 37.1
HGGX39 [29]
  area under dose-response curve: 34.2
HGGX42 [30]
  area under dose-response curve: 50
HGGX6 [31]
  area under dose-response curve: 22.9
SUDIPGIV [32]
  area under dose-response curve: 53
SUDIPGVI
  area under dose-response curve: 33.8
SUDIPGXIII [33]
  area under dose-response curve: 9.16
SUDIPGXIX [34]
  area under dose-response curve: 78.6
SUDIPGXVII [35]
  area under dose-response curve: 44.5
SUDIPGXXI [36]
  area under dose-response curve: 178
iAstro [37]
  area under dose-response curve: 29.7

## NC(=O)Nc1sc(-c2ccc(F)cc2)cc1C(N)=O [TPCA-1]
DIPGX29 [1]
  EC50 (log10 M): -4.75
DIPGX37 [38]
  EC50 (log10 M): -4.8
DIPGX9 [2]
  EC50 (log10 M): -4.8
HABS [3]
  EC50 (log10 M): -4.95
HGGX2 [4]
  EC50 (log10 M): -4.67
HGGX39 [5]
  EC50 (log10 M): -4.79
HGGX42 [6]
  EC50 (log10 M): -5.23
HGGX6 [7]
  EC50 (log10 M): -5.19
SUDIPGIV [39]
  EC50 (log10 M): -4.55
SUDIPGXIX [8]
  EC50 (log10 M): -4.66
SUDIPGXVII [9]
  EC50 (log10 M): -4.74
SUDIPGXXI [10]
  EC50 (log10 M): -4.81
iAstro [11]
  EC50 (log10 M): -4.76
DIPGX29 [12]
  maximal growth inhibition: 35.9%
DIPGX37 [40]
  maximal growth inhibition: 38.5%
DIPGX9 [13]
  maximal growth inhibition: 36.9%
HABS [14]
  maximal growth inhibition: 33.8%
HGGX2 [15]
  maximal growth inhibition: 36.3%
HGGX39 [16]
  maximal growth inhibition: 27.7%
HGGX42 [17]
  maximal growth inhibition: 24.8%
HGGX6 [18]
  maximal growth inhibition: 22.5%
SUDIPGIV [41]
  maximal growth inhibition: 21.9%
SUDIPGXIX [19]
  maximal growth inhibition: 58.5%
SUDIPGXVII [20]
  maximal growth inhibition: 20.7%
SUDIPGXXI [21]
  maximal growth inhibition: 122%
iAstro [22]
  maximal growth inhibition: 24.4%
DIPGX29 [23]
  area under dose-response curve: 26.8
DIPGX37 [24]
  area under dose-response curve: 30.6
DIPGX7 [25]
  area under dose-response curve: 11.3
DIPGX9 [26]
  area under dose-response curve: 29.4
HABS [27]
  area under dose-response curve: 32.4
HGGX2 [28]
  area under dose-response curve: 23.3
HGGX39 [29]
  area under dose-response curve: 21.9
HGGX42 [30]
  area under dose-response curve: 30.8
HGGX6 [31]
  area under dose-response curve: 26.9
SUDIPGIV [32]
  area under dose-response curve: 12
SUDIPGVI
  area under dose-response curve: 6.26
SUDIPGXIII [33]
  area under dose-response curve: 3.37
SUDIPGXIX [34]
  area under dose-response curve: 39.2
SUDIPGXVII [35]
  area under dose-response curve: 15.2
SUDIPGXXI [36]
  area under dose-response curve: 99.3
iAstro [37]
  area under dose-response curve: 18.2

## Cn1cnc([N+](=O)[O-])c1Sc1ncnc2[nH]cnc12 [AZATHIOPRINE]
DIPGX29 [1]
  EC50 (log10 M): -6.11
DIPGX37 [38]
  EC50 (log10 M): -5.6
DIPGX7 [42]
  EC50 (log10 M): -5.08
DIPGX9 [2]
  EC50 (log10 M): -5.87
HGGX39 [5]
  EC50 (log10 M): -5.65
HGGX42 [6]
  EC50 (log10 M): -6.39
SUDIPGIV [39]
  EC50 (log10 M): -5.75
SUDIPGXIII [43]
  EC50 (log10 M): -6.03
SUDIPGXIX [8]
  EC50 (log10 M): -6.06
SUDIPGXXI [10]
  EC50 (log10 M): -6.73
DIPGX29 [12]
  maximal growth inhibition: 55.9%
DIPGX37 [40]
  maximal growth inhibition: 53.7%
DIPGX7 [44]
  maximal growth inhibition: 32.3%
DIPGX9 [13]
  maximal growth inhibition: 27.4%
HGGX39 [16]
  maximal growth inhibition: 52.1%
HGGX42 [17]
  maximal growth inhibition: 23.2%
SUDIPGIV [41]
  maximal growth inhibition: 34%
SUDIPGXIII [45]
  maximal growth inhibition: 21%
SUDIPGXIX [19]
  maximal growth inhibition: 25.4%
SUDIPGXXI [21]
  maximal growth inhibition: 43.4%
DIPGX29 [23]
  area under dose-response curve: 119
DIPGX37 [24]
  area under dose-response curve: 87.5
DIPGX7 [25]
  area under dose-response curve: 35.7
DIPGX9 [26]
  area under dose-response curve: 52.8
HABS [27]
  area under dose-response curve: 15.3
HGGX2 [28]
  area under dose-response curve: 49.3
HGGX39 [29]
  area under dose-response curve: 80.7
HGGX42 [30]
  area under dose-response curve: 51
HGGX6 [31]
  area under dose-response curve: 50.7
SUDIPGIV [32]
  area under dose-response curve: 60
SUDIPGVI
  area under dose-response curve: 29
SUDIPGXIII [33]
  area under dose-response curve: 38.7
SUDIPGXIX [34]
  area under dose-response curve: 42.2
SUDIPGXVII [35]
  area under dose-response curve: 37.4
SUDIPGXXI [36]
  area under dose-response curve: 119
iAstro [37]
  area under dose-response curve: 6.8
